Results reported in patent publication US20240400591A1 (Jacobio Pharmaceuticals Co., Ltd., priority 2021, published 2024).
Like-named read-outs stand apart in the source and are kept apart here.

Columns and labels:
[1] = test system: NUGC4 (P53 WT); experiment: Cell viability assay (CellTiter-Glo, 6 days), NUGC4; assay type: cell-based; details: cell viability, 6 days, CellTiter-Glo, read-out: NUGC4 (P53 WT) IC50
Outline: (§1)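 After a 6-day compound exposure following overnight plating, ATP luminescence (CellTiter-Glo) gave percent viability relative to DMSO-treated cells and cell-free medium controls. IC50 = concentration at 50% viability, from 4-parameter logistic or Excel fit.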

[2] = test system: NUGC3 (P53 Y220C); experiment: Cell viability assay (CellTiter-Glo, 6 days), NUGC3; assay type: cell-based; details: cell viability, 6 days, CellTiter-Glo, read-out: NUGC3 (P53 Y220C) IC50
Outline: as §1

[3] = target: T1, His-p53 Y220C (94-294) protein (Homo sapiens, UniProt P04637, Y220C); experiment: In vitro DNA binding assay (HTRF); assay type: biochemical; details: % activation normalized to 2 μM Ref-1a high control
T1 construct: His-p53 Y220C (94-294) protein

[4] = test system: NUGC-3_P53_Luc single clonal cell line (p53 Y220C); experiment: Reporter gene assay (p53 RE luciferase); assay type: cell-based; details: luciferase reporter, 6 hours, normalized to Ref-1a (10 μM) high control, read-out: p53(Y220C)_NUGC-3 EC50
Outline: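 Luminescence normalised to DMSO-only (0%) and 10 μM Ref-1a (100%) wells gives % activity, fitted by 4-parameter logistic or Excel to yield EC50 at 50%. Reporter line: NUGC-3 with p53 response element-luc2P, compound-treated 6 h at 37 °C.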

| SMILES | EC50 [3] | IC50 ([1]; Homo sapiens, NUGC-4, 144 h) | IC50 ([2]; Homo sapiens, NUGC-3, 144 h) | EC50 ([4]; Homo sapiens, NUGC-3) | EC50 ([4]; Homo sapiens, NUGC-3, 6 h) | IC50 [1] | IC50 [2] | EC50 [4] |
| --- | --- | --- | --- | --- | --- | --- | --- | --- |
| CN1CC[C@H](Nc2cccc3c(CC(F)(F)F)c(C#CCNc4ccc(P(C)(C)=O)cc4C(F)F)sc23)[C@H](F)C1 [Example 225, (3-(difluoromethyl)-4-((3-(7-(((3R,4S)-3-fluoro-1-methylpiperidin-4-yl)amino)-3-(2,2,2-trifluoroethyl)benzol[b]thiophen-2-yl)prop-2-yn-1-yl)amino)phenyl)dimethylphosphine oxide] | 36 nM | 13.6 µM | 440 nM | – | 170 nM | – | – | – |
| COc1cc(P(C)(C)=O)ccc1NCC#Cc1sc2c(N[C@@H]3CCN(C(C)C)C[C@@H]3F)cccc2c1CC(F)(F)F (racemic) [Example 86, (4-((3-(7-(((Z)-3-fluoro-1-isopropylpiperidin-4-yl)amino)-3-(2,2,2-trifluoroethyl)benzo[b]thiophen-2-yl)prop-2-yn-1-yl)amino)-3-methoxyphenyl)dimethylphosphine oxide] | 37 nM | 4.56 µM | 790 nM | – | 140 nM | – | – | – |
| COCCOCCNC(=O)c1ccc(NCC#Cc2sc3c(N[C@@H]4CCN(C)C[C@@H]4F)cccc3c2CC(F)(F)F)c(OC)c1 (racemic) [Example 96, 4-((3-(7-(((Z)-3-fluoro-1-methylpiperidin-4-yl)amino)-3-(2,2,2-trifluoroethyl)benzo[b]thiophen-2-yl)prop-2-yn-1-yl)amino)-3-methoxy-N-(2-(2-methoxyethoxy)ethyl)benzamide] | 103 nM | 9.93 µM | 1680 nM | 130 nM | – | – | – | – |
| COc1cc(P(C)(C)=O)ccc1NCC#Cc1sc2c(NC3[C@@H]4COC[C@H]3CN(C)C4)cccc2c1CC(F)(F)F (single isomer, unassigned) [Example 197] | 26 nM | 11.5 µM | 390 nM | 120 nM | – | – | – | – |
| COc1cc(P(C)(C)=O)ccc1NCC#Cc1sc2c(N[C@H]3CCN(C)C[C@H]3C)cccc2c1CC(F)(F)F [Example 125, (4-((3-(7-(((3R,4S)-1,3-dimethylpiperidin-4-yl)amino)-3-(2,2,2-trifluoroethyl)benzo[b]thiophen-2-yl)prop-2-yn-1-yl)amino)-3-methoxyphenyl)dimethylphosphine oxide] | 54 nM | 2.57 µM | 1270 nM | – | 180 nM | – | – | – |
| COc1cc(C(=O)NC2CCN(C)CC2F)ccc1NCC#Cc1sc2c(NC3CCN(C)CC3F)cccc2c1CC(F)(F)F (stereo not drawn) [Example 68, N-(3-fluoro-1-methylpiperidin-4-yl)-4-((3-(7-(((Z)-3-fluoro-1-methylpiperidin-4-yl)amino)-3-(2,2,2-trifluoroethyl)benzo[b]thiophen-2-yl)prop-2-yn-1-yl)amino)-3-methoxybenzamide] | 44 nM | – | – | – | – | 1.39 µM | 1080 nM | 640 nM |
| CNC(=O)c1ccc(NCC#Cc2sc3c(N[C@@H]4CCN(C)C[C@@H]4F)cccc3c2CC(F)(F)F)c(OC)c1 [Example 113, 4-((3-(7-(((3S,4R)-3-fluoro-1-methylpiperidin-4-yl)amino)-3-(2,2,2-trifluoroethyl)benzo[b]thiophen-2-yl)prop-2-yn-1-yl)amino)-3-methoxy-N-methylbenzamide] | 44 nM | 6.1 µM | 930 nM | – | 70 nM | – | – | – |

Now from value to molecule, other results behind:

| EC50 [3] | SMILES | IC50 ([1]; Homo sapiens, NUGC-4, 144 h) | IC50 ([2]; Homo sapiens, NUGC-3, 144 h) | EC50 ([4]; Homo sapiens, NUGC-3) | EC50 ([4]; Homo sapiens, NUGC-3, 6 h) | IC50 [1] | IC50 [2] | EC50 [4] |
| --- | --- | --- | --- | --- | --- | --- | --- | --- |
| 45 nM | COc1cc(P(C)(C)=O)ccc1NCC#Cc1sc2c(NC3CC4(C3)CN(C)C4)cccc2c1CC(F)(F)F [Example 189, (3-methoxy-4-((3-(7-((2-methyl-2-azaspiro[3.3]heptan-6-yl)amino)-3-(2,2,2-trifluoroethyl)benzo[b]thiophen-2-yl)prop-2-yn-1-yl)amino)phenyl)dimethylphosphine oxide] | 8.67 µM | 3640 nM | 700 nM | – | – | – | – |
| 105 nM | COc1cc(P(C)(C)=O)ccc1NCC#Cc1sc2c(N[C@@H]3CCN(CC(C)C)C[C@@H]3F)cccc2c1CC(F)(F)F (racemic) [Example 101, (4-((3-(7-(((Z)-3-fluoro-1-isobutylpiperidin-4-yl)amino)-3-(2,2,2-trifluoroethyl)benzo[b]thiophen-2-yl)prop-2-yn-1-yl)amino)-3-methoxyphenyl)dimethylphosphine oxide] | 2.05 µM | 2050 nM | 360 nM | – | – | – | – |
| 42 nM | CN1CC[C@@H](Nc2cccc3c(CC(F)(F)F)c(C#CCNc4ccc(P(C)(C)=O)cc4C(=O)NC4CC4)sc23)[C@@H](F)C1 [Example 215, N-cyclopropyl-5-(dimethylphosphoryl)-2-((3-(7-(((3S,4R)-3-fluoro-1-methylpiperidin-4-yl)amino)-3-(2,2,2-trifluoroethyl)benzo[b]thiophen-2-yl)prop-2-yn-1-yl)amino)benzamide] | 37.3 µM | 370 nM | 140 nM | – | – | – | – |
| 72 nM | CNC(=O)c1cc(OC)c(NCC#Cc2sc3c(NC4CCN(C)CC4F)cccc3c2CC(F)(F)F)cn1 (stereo not drawn) [Example 60, 5-((3-(3-(2,2,2-trifluoroethyl)-7-(((Z)-3-fluoro-1-methylpiperidin-4-yl)amino)benzo[b]thiophen-2-yl)prop-2-yn-1-yl)amino)-4-methoxy-N-methylpicolinamide] | – | – | – | – | 6.1 µM | 1950 nM | 470 nM |
| 18 nM | COc1cc(P(C)(C)=O)ccc1NCC#Cc1sc2c(NC3CCN(C)CC3F)cccc2c1C(O)C(F)(F)F (racemic) [Example 188, (4-((3-(7-((3-fluoro-1-methylpiperidin-4-yl)amino)-3-(2,2,2-trifluoro-1-hydroxyethyl)benzo[b]thiophen-2-yl)prop-2-yn-1-yl)amino)-3-methoxyphenyl)dimethylphosphine oxide(racemic)] | 40.6 µM | 1900 nM | 60 nM | – | – | – | – |
| 31 nM | COc1nc(P(C)(C)=O)ccc1NCC#Cc1sc2c(N[C@@H]3CCN(C)C[C@@H]3F)cccc2c1CC(F)(F)F [Example 153, (5-((3-(7-(((3S,4R)-3-fluoro-1-methylpiperidin-4-yl)amino)-3-(2,2,2-trifluoroethyl)benzo[b]thiophen-2-yl)prop-2-yn-1-yl)amino)-6-methoxypyridin-2-yl)dimethylphosphine oxide] | 4.07 µM | 370 nM | 100 nM | – | – | – | – |
| 33 nM | COc1cc(P(C)(C)=O)ccc1NCC#Cc1sc2c(NC3C(C)CN(C)CC3C)cccc2c1CC(F)(F)F (stereo not drawn) [Example 131, (3-methoxy-4-((3-(3-(2,2,2-trifluoroethyl)-7-(((Z)-1,3,5-trimethylpiperidin-4-yl)amino)benzo[b]thiophen-2-yl)prop-2-yn-1-yl)amino)phenyl)dimethylphosphine oxide] | 2.54 µM | 660 nM | 70 nM | – | – | – | – |
| 60 nM | COc1cc(-c2ncn(C)n2)ccc1NCC#Cc1sc2c(N[C@@H]3CCN(C)C[C@@H]3F)cccc2c1CC(F)(F)F [Example 172, (3S,4R)-3-fluoro-N-(2-(3-((2-methoxy-4-(1-methyl-1H-1,2,4-triazol-3-yl)phenyl)amino)prop-1-yn-1-yl)-3-(2,2,2-trifluoroethyl)benzo[b]thiophen-7-yl)-1-methylpiperidin-4-amine] | 7.55 µM | 1510 nM | 180 nM | – | – | – | – |
